Assay results: US7507704B1, “Receptor modulated cancer protocols” (priority 2002, dated 2009)

What was measured:
Metastatic Breast Cancer [1] = assay: Skipper log cell kill model projection for trastuzumab regimens (antagonistic scenario); conditions: estimated from AC group, 23%÷68%
Metastatic Breast Cancer [2] = conditions: cytotoxics q 21 days × 6, trastuzumab q week, actual Phase III data; cited from earlier work
[3] = in vivo; cited from earlier work
[4] = rifampicin co-administered with erlotinib; cited from earlier work

O=P1(N(CCCl)CCCl)NCCCO1 (stereo not shown) [C, cyclophosphamide]
"stand alone" tumor kill rate (Metastatic Breast Cancer [1]): 34%

CC(=O)O[C@H]1C(=O)[C@@]2(C)[C@H]([C@H](OC(=O)c3ccccc3)[C@]3(O)C[C@H](OC(=O)[C@H](O)[C@@H](NC(=O)c4ccccc4)c4ccccc4)C(C)=C1C3(C)C)[C@]1(OC(C)=O)CO[C@@H]1C[C@@H]2O [Paclitaxel]
Median Survival (Metastatic Breast Cancer [2]): 18.4 months

CC/C(=C(\c1ccccc1)c1ccc(OCCN(C)C)cc1)c1ccccc1 [Tamoxifen]
plasma concentration half life [3]: 120 to 170 h

CO[C@H]1/C=C/O[C@@]2(C)Oc3c(C)c(O)c4c(O)c(c(/C=N/N5CCN(C)CC5)c(O)c4c3C2=O)NC(=O)/C(C)=C\C=C\[C@H](C)[C@H](O)[C@@H](C)[C@@H](O)[C@@H](C)[C@H](OC(C)=O)[C@@H]1C [Rifampicin]
increased clearance of erlotinib [4]: 3 fold
